Data reported in US7718613B2, “Armed peptides” (priority 2001, dated 2010).
The star is where a group is joined. Myristoyl = CCCCCCCCCCCCCC(=O)*

Key:
[1] = Cytolytic activity of pH-responsive peptides on calcein liposomes at different pH; settings: liposomes 4 μM lipid; 14 nM peptide 2, 20 nM peptide 7, 45 nM peptide 9; FIG. 4
Experimental: Liposomes encapsulating calcein dye were prepared by an extrusion method (Biochim. Biophys. Acta, 812 (1985) 55). Phophatidylcholine (50 mg) and cholesterol (13.08 mg) which had been dissolved in 4 ml of 50% v/v chloroform methanol solution were evaporated to form a lipid film in a round bottom flask. If it is essential to follow the fate of liposomes a lipohilic-dye such as DiI (50 μg) could be incorporated into the lipid film prior to hydration. The film was then hydrated with 4 ml of 120 mM calcein solution prepared in 10 mM sodium phosphate 20 mM Sodium chloride buffer pH 7.4. Liposomes were formed by 10 extrusion cycles through 0.2 micron or 0.1 um polycarbonate filters using the Liposofast 100 (Avestin) extruder device. The non encapsulated dye was removed by gel filtration on a PD-10 column using iso-osmotic buffer. The total lipid concentration of the liposomes was measured by the Stewart assay and adjusted to 3 mg per ml.
The cytolytic activity of pH-responsive peptides was followed by adding 2 or 3 μl of liposomes to a 2 ml assay volume and continually recording fluorescence. Buffers were made of 10 mM Na phosphate, 140 mM NaCl, 1 mM EDTA, 5 mM HEPES at several different pH values. […] In the experiments 2 ml of 10 mM Na phosphate, 140 mM NaCl, 1 mM EDTA, 5 mM HEPES buffer (at pH values indicated on the figure) containing liposomes (4 μM lipid) and (A) 14 nM peptide 2, (B) 20 nM peptide 7 (C) 45 nM peptide 9. In all cases peptides were added indicated by sharp dip in fluorescence were used. The pH values are as indicated for each trace. […] In general, it is well documented that many proteins including receptors, enzymes and antibodies has pH optimum usually closer to physiological value. On either side of the pH optimum the binding activity is reduced. However in general as activity profile is typically bell shape most proteins would tolerate at least a pH unit shift from optimum. Obviously the closer the results are to pH 7.4 the higher chances their are for efficient binding with target proteins or receptors.

[2] = Liposome-peptide integral complex: pH-triggered calcein release and stability
From the text: A fatty acid incorporated on the N-terminal of peptide anchors the sequence with liposomes to form integral complex which can then be used as single stable reagent that can be triggered to release the contents-of the liposomoes when the pH is ideal (i.e physiological 7.4) or acidic (e.g 6.2). In the first instance we prepared the liposome-peptide complex at a predetermined ratio of lipid-to peptide (30:1) in pH 8 buffer using peptide 10. […] The complex between liposomes and peptide was formed by adding peptide to […] of 10 mM NaP containing 140 mM NaCl, 1 mM EDTA, 5 mM Hepes pH 8 buffer, containing 100 μl of calcein encapsulating liposomes. The mixture was incubated for 20 mins to form the complex prior to use. In order to ascertain that the lysis is occurring due to the formation of complex and not as the action of the peptide per se it was essential to purify the liposome-peptide complex. The peptide to lipid ratio in this complex is 1:30. The complex was applied to a Sepharose CL-6B column. Fractions corresponding to liposomes were collected as clearly visible to the eye. Aliquots of these fractions were then tested for lytic activity at acidic and physiological pH values. The key aim was to establish that the peptide is liposome associated and would thus be eluted with liposome fraction in the void volume. We used 100 μl complex (a column purified fraction) and followed the release of Calcein at two different pH values.
FIG. 8A. […] Upper curve pH 5.8. Lower curve pH 7.4.
2 ml buffer (10 mM Na phosphate, 140 mM NaCl, 1 mM EDTA, 5 mM HEPES)+50 μl purified complex. Lipsomes used were 50 nm extruded. Curves top to bottom are pH 6.2, 6.4, 6.7, 7.0, 7.4
Complex 20 μl liposomes+60 μl pH 8 buffer+20 μl peptide (0.1 mg/ml) prepared and used within 2 minutes. 10 μl was added to each of the cuvettes containing 2 ml buffers. Top curve pH 6.2 (triton was added towards the end indicated by sharp dip in fluorescence to check full lysis), the lower curve is at pH 7.4. Samples measured simultaneously.
5 μL of complex in 2 ml of buffer tested 20 minutes after preparation. Upper curve pH 6.2, Lower curve pH 7.4.
5 μL of complex in 2 ml of buffer tested 5 hrs after preparation. Upper curve pH 6.2 and lower curve pH 7.4.
5 μL of complex in 2 ml of buffer tested 24 hrs after preparation curve pH 6.2, Lower curve pH 7.4.

KHT tumour = assay: Ex vivo release of calcein in tumour slices after i.v. peptide liposome complex; set-up: species or system C3H mice; settings: 200 μl complex i.v., tumours excised 3 hrs post inoculum, buffer pH 8 changed to pH 5.8; FIG. 11
Experimental: Liposomes encapsulating Calcein (120 mM) and with label DiI (the dye to lipid ratio was around 100 μg dye: 100 mg PC) were used. C3H syngenic mice 8-10 weeks old weighing 20-25 g were used. Subcutaneous tumour was implanted using KHT cells (5×10^6 cells/animal) on the dorsal side after shaving the mice. Typically 200 μl of peptide liposome complex (100 μl of dual dye liposomes+100 μl of peptide 0.1 mg/ml) were administered intravenously per mice and tumours excised 3 hrs post inoculum. The tumour was removed aseptically and kept in PBS pH 8.0 buffer and thin sections (160 μm-200 μm) were cut on the slicing machine, and examined under a fluorescence microscope. The pH of the buffer was modulated by adding 400 μl of NaP buffer pH 5.8 while simultaneously removing 400 μl of pH 8 buffer. Changes in fluorescence intensity were recorded. The state of liposome peptide complex is then determined, whether intact or lysed by measuring fluorescence in tissue slices before-and after incubation in acidic buffer. The increase in fluorescence in the acidic buffer indicates the quantity of liposomes that were still intact and able to respond at the time of sacrifice.

## Myr-WEAALAEALAEALAEHLARALAEALEALAA-Amide (Myristoyl-WEAALAEALAEALAEHLARALAEALEALAA-NH2; SMILES CCCCCCCCCCCCCC(=O)N[C@@H](Cc1c[nH]c2ccccc12)C(=O)N[C@@H](CCC(=O)O)C(=O)N[C@@H](C)C(=O)N[C@@H](C)C(=O)N[C@@H](CC(C)C)C(=O)N[C@@H](C)C(=O)N[C@@H](CCC(=O)O)C(=O)N[C@@H](C)C(=O)N[C@@H](CC(C)C)C(=O)N[C@@H](C)C(=O)N[C@@H](CCC(=O)O)C(=O)N[C@@H](C)C(=O)N[C@@H](CC(C)C)C(=O)N[C@@H](C)C(=O)N[C@@H](CCC(=O)O)C(=O)N[C@@H](Cc1c[nH]cn1)C(=O)N[C@@H](CC(C)C)C(=O)N[C@@H](C)C(=O)N[C@@H](CCCNC(=N)N)C(=O)N[C@@H](C)C(=O)N[C@@H](CC(C)C)C(=O)N[C@@H](C)C(=O)N[C@@H](CCC(=O)O)C(=O)N[C@@H](C)C(=O)N[C@@H](CC(C)C)C(=O)N[C@@H](CCC(=O)O)C(=O)N[C@@H](C)C(=O)N[C@@H](CC(C)C)C(=O)N[C@@H](C)C(=O)N[C@@H](C)C(N)=O) [peptide 9]
[1]
  pH of triggering (pH profile of calcein release from liposomes): ~7 pH
[2]; calcein/DiI liposomes, tested 20 minutes, 5 hrs and 24 hrs after preparation, pH 6.2 vs 7.4, FIGS. 8D, E, F
  stability of the complex: retention of the pH triggering of properties
[2]; peptide to lipid ratio 1:300, pH 6.2 to 7.4, FIG. 8B
  triggering properties of complex after purification: triggering properties are retained
KHT tumour
  release of calcein in tumour slices on acidification: able to trigger release of calcein
